Assay results as given in ChEMBL document CHEMBL1201862, “PubChem BioAssay data set” (2004).
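1) Cells in 96-well plates. 2) Compound, 48 h, 5 concentrations. 3) Linear interpolation between surrounding doses. 4) Unreached endpoint = highest concentration. GI50 is the concentration that inhibits growth by half.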 The source made the active and inactive calls. Cut-off read from the data, not from the text of the source: active = GI50 up to about 1.1 µM and inactive = higher.

How the values were obtained:
Experiment in all cases: growth of human tumour cells (NCI), 48 h
SK-MEL-28 = system: SK-MEL-28
MDA-N = system: MDA-N
PC-3 = system: PC-3
SK-OV-3 = system: SK-OV-3
OVCAR-5 = system: OVCAR-5
A498 = system: A498
HT-29 = system: HT-29
K562 = system: K562
UO-31 = system: UO-31
786-0 = system: 786-0
SK-MEL-2 = system: SK-MEL-2
CCRF-CEM = system: CCRF-CEM
KM12 = system: KM12
BT-549 = system: BT-549
OVCAR-4 = system: OVCAR-4
Malme-3M = system: Malme-3M
DU-145 = system: DU-145
HOP-62 = system: HOP-62
SF-268 = system: SF-268
RXF 393 = system: RXF 393

Measured: GI50

CC(C)(C)C1=CC(=C(c2ccc(-c3c4nc(c(-c5ccc(C(=C6C=C(C(C)(C)C)C(=O)C(C(C)(C)C)=C6)c6cc(C(C)(C)C)c(O)c(C(C)(C)C)c6)cc5)c5ccc([nH]5)c(-c5ccc(C(=C6C=C(C(C)(C)C)C(=O)C(C(C)(C)C)=C6)c6cc(C(C)(C)C)c(O)c(C(C)(C)C)c6)cc5)c5nc(c(-c6ccc(C(=C7C=C(C(C)(C)C)C(=O)C(C(C)(C)C)=C7)c7cc(C(C)(C)C)c(O)c(C(C)(C)C)c7)cc6)c6ccc3[nH]6)C=C5)C=C4)cc2)c2cc(C(C)(C)C)c(O)c(C(C)(C)C)c2)C=C(C(C)(C)C)C1=O
inactive: SK-MEL-28 > 100 µM | MDA-N > 100 µM | PC-3 > 100 µM | SK-OV-3 > 100 µM | OVCAR-5 > 100 µM | A498 > 100 µM | HT-29 > 100 µM | K562 > 100 µM | UO-31 > 100 µM | 786-0 > 77.8 µM | SK-MEL-2 > 100 µM | CCRF-CEM > 100 µM | KM12 > 100 µM | BT-549 > 100 µM | OVCAR-4 > 100 µM | Malme-3M > 100 µM | DU-145 > 100 µM | HOP-62 > 100 µM | SF-268 > 100 µM | RXF 393 > 70.8 µM

O=C(Cn1c(C(=O)/C=C/c2ccc(Cl)c(Cl)c2)nc2ccccc21)c1ccccc1
inactive: SK-MEL-28 35.3 µM | MDA-N 19.9 µM | PC-3 29.3 µM | SK-OV-3 28.6 µM | OVCAR-5 17.6 µM | A498 26.1 µM | HT-29 16 µM | K562 33.7 µM | UO-31 24.8 µM | 786-0 18.8 µM | SK-MEL-2 19.8 µM | CCRF-CEM 6.92 µM | KM12 19.6 µM | BT-549 32.1 µM | OVCAR-4 25.6 µM | Malme-3M 35.2 µM | DU-145 32.9 µM | HOP-62 26 µM | SF-268 45.4 µM | RXF 393 24 µM

COc1ccc(C(=O)c2sc(N(C)C)nc2-c2ccccc2)cc1
inactive: SK-MEL-28 32.1 µM | MDA-N 18.1 µM | PC-3 28.9 µM | SK-OV-3 22.5 µM | OVCAR-5 36.7 µM | A498 26.9 µM | HT-29 32.9 µM | K562 35.4 µM | UO-31 32.1 µM | 786-0 34.4 µM | SK-MEL-2 22.5 µM | CCRF-CEM 5.07 µM | KM12 15.8 µM | BT-549 26.1 µM | OVCAR-4 23.4 µM | Malme-3M 37.4 µM | DU-145 49 µM | HOP-62 20.6 µM | SF-268 40.1 µM | RXF 393 54.3 µM

Nc1ccc(Oc2ccc(C34CC5CC(C3)CC(c3ccc(Oc6ccc(N)cc6)cc3)(C5)C4)cc2)cc1
inactive: SK-MEL-28 18.9 µM | MDA-N 8.71 µM | PC-3 6.28 µM | SK-OV-3 22.2 µM | OVCAR-5 18.6 µM | A498 12 µM | HT-29 8.11 µM | K562 15.8 µM | UO-31 33 µM | 786-0 10.2 µM | SK-MEL-2 13.1 µM | CCRF-CEM > 22 µM | KM12 7.67 µM | BT-549 8.69 µM | OVCAR-4 8.79 µM | Malme-3M 11.6 µM | DU-145 7.43 µM | HOP-62 17.5 µM | SF-268 9.66 µM | RXF 393 12.8 µM
